Numbers after ± are expanded uncertainties.
Assays:
[1] = xn = mol fraction of the nth substance listed; conditions: 101 kPa, Liquid, Capillary tube (Ostwald / Ubbelohde) method, x2 = 0
[2] = 101 kPa, Liquid; for viscosity: Capillary tube (Ostwald / Ubbelohde) method; for mass density: Pycnometric method

## O [water] + COCCOCCOC
[1]; 293.15 K
  viscosity: 1.01 ± 0.04 mPa·s
[1]; 298.15 K
  viscosity: 0.89 ± 0.04 mPa·s
[1]; 303.15 K
  viscosity: 0.801 ± 0.04 mPa·s
[1]; 308.15 K
  viscosity: 0.723 ± 0.04 mPa·s
[1]; 313.15 K
  viscosity: 0.656 ± 0.04 mPa·s

## COCCOCCOC [2,5,8-trioxanonane]
[2]; 293.15 K
  viscosity: 1.09 ± 0.04 mPa·s
  mass density: 945.2 ± 2 kg/m3
[2]; 298.15 K
  viscosity: 0.998 ± 0.041 mPa·s
  mass density: 939.8 ± 2 kg/m3
[2]; 303.15 K
  viscosity: 0.914 ± 0.04 mPa·s
  mass density: 935 ± 2 kg/m3
[2]; 308.15 K
  viscosity: 0.834 ± 0.04 mPa·s
  mass density: 930.7 ± 2 kg/m3
[2]; 313.15 K
  viscosity: 0.785 ± 0.04 mPa·s
  mass density: 925.4 ± 2 kg/m3

## O [water]
[2]; 293.15 K
  viscosity: 1.01 ± 0.04 mPa·s
[2]; 298.15 K
  viscosity: 0.89 ± 0.04 mPa·s
[2]; 303.15 K
  viscosity: 0.801 ± 0.04 mPa·s
[2]; 308.15 K
  viscosity: 0.723 ± 0.04 mPa·s
[2]; 313.15 K
  viscosity: 0.656 ± 0.04 mPa·s
